Data: the NIST ThermoML archive (doi:10.1021/je700344f)

Assay: xn = mol fraction of the nth substance listed
Conditions: 101 kPa, Liquid

CN(C)c1ccccc1 [N,N-dimethylaniline] + C1COCCO1
Conditions | mass density [kg/m3] | viscosity [mPa·s]
283.15 K, x2 = 0.3099 | 990.33 | 1.68
283.15 K, x2 = 0.4246 | 998.33 | 1.66
283.15 K, x2 = 0.5302 | 1005.32 | 1.637
283.15 K, x2 = 0.6278 | 1013.42 | 1.629
283.15 K, x2 = 0.7182 | 1019.31 | 1.607
283.15 K, x2 = 0.7749 | 1025.23 | 1.606
283.15 K, x2 = 0.8551 | 1034.31 | 1.602
283.15 K, x2 = 0.9081 | 1040.92 | 1.591
283.15 K, x2 = 0.9538 | 1043.01 | 1.588
293.15 K, x2 = 0.3099 | 980.73 | 1.424
293.15 K, x2 = 0.4246 | 989.12 | 1.428
293.15 K, x2 = 0.5302 | 995.81 | 1.37
293.15 K, x2 = 0.6278 | 1003.54 | 1.362
293.15 K, x2 = 0.7182 | 1011.33 | 1.345
293.15 K, x2 = 0.7749 | 1016.79 | 1.339
293.15 K, x2 = 0.8551 | 1023.65 | 1.326
293.15 K, x2 = 0.9081 | 1031.25 | 1.33
293.15 K, x2 = 0.9538 | 1035.34 | 1.327
303.15 K, x2 = 0.3099 | 973.4 | 1.199
303.15 K, x2 = 0.4246 | 980.12 | 1.182
303.15 K, x2 = 0.5302 | 986.56 | 1.166
303.15 K, x2 = 0.6278 | 993.63 | 1.157
303.15 K, x2 = 0.7182 | 1001.04 | 1.142
303.15 K, x2 = 0.7749 | 1005.98 | 1.136
303.15 K, x2 = 0.8551 | 1014.07 | 1.131
303.15 K, x2 = 0.9081 | 1019.01 | 1.124
303.15 K, x2 = 0.9538 | 1024.82 | 1.122
313.15 K, x2 = 0.3099 | 963.88 | 1.029
313.15 K, x2 = 0.4246 | 970.47 | 1.025
313.15 K, x2 = 0.5302 | 977.93 | 1.01
313.15 K, x2 = 0.6278 | 984.4 | 1.002
313.15 K, x2 = 0.7182 | 991.21 | 0.987
313.15 K, x2 = 0.7749 | 995.85 | 0.984
313.15 K, x2 = 0.8551 | 1003.65 | 0.976
313.15 K, x2 = 0.9081 | 1008.93 | 0.965
313.15 K, x2 = 0.9538 | 1014.66 | 0.968
323.15 K, x2 = 0.3099 | 955.01 | 0.912
323.15 K, x2 = 0.4246 | 961.76 | 0.901
323.15 K, x2 = 0.5302 | 968.52 | 0.886
323.15 K, x2 = 0.6278 | 974.24 | 0.879
323.15 K, x2 = 0.7182 | 981.34 | 0.872
323.15 K, x2 = 0.7749 | 985.13 | 0.861
323.15 K, x2 = 0.8551 | 993.17 | 0.857
323.15 K, x2 = 0.9081 | 997.95 | 0.848
323.15 K, x2 = 0.9538 | 1002.4 | 0.845
333.15 K, x2 = 0.3099 | 945.84 | 0.811
333.15 K, x2 = 0.4246 | 953.15 | 0.798
333.15 K, x2 = 0.5302 | 958.78 | 0.786
333.15 K, x2 = 0.6278 | 964.37 | 0.779
333.15 K, x2 = 0.7182 | 971.52 | 0.771
333.15 K, x2 = 0.7749 | 974.75 | 0.763
333.15 K, x2 = 0.8551 | 983.43 | 0.761
333.15 K, x2 = 0.9081 | 986.57 | 0.75
333.15 K, x2 = 0.9538 | 991.84 | 0.751
343.15 K, x2 = 0.3099 | 936.89 | 0.725
343.15 K, x2 = 0.4246 | 944.04 | 0.716
343.15 K, x2 = 0.5302 | 948.37 | 0.71
343.15 K, x2 = 0.6278 | 954.22 | 0.711
343.15 K, x2 = 0.7182 | 962.15 | 0.689
343.15 K, x2 = 0.7749 | 964.44 | 0.683
343.15 K, x2 = 0.8551 | 971.97 | 0.678
343.15 K, x2 = 0.9081 | 977.83 | 0.674
343.15 K, x2 = 0.9538 | 980.14 | 0.67

CN(C)c1ccccc1 [N,N-dimethylaniline] + CCCCCCO
Conditions | mass density [kg/m3] | viscosity [mPa·s]
283.15 K, x2 = 0.1009 | 958.16 | 1.749
283.15 K, x2 = 0.2017 | 944.54 | 1.867
283.15 K, x2 = 0.3022 | 928.83 | 2.079
283.15 K, x2 = 0.4025 | 915.52 | 2.306
283.15 K, x2 = 0.5026 | 904.21 | 2.676
283.15 K, x2 = 0.6025 | 890.94 | 3.092
283.15 K, x2 = 0.7022 | 876.26 | 3.708
283.15 K, x2 = 0.8016 | 861.23 | 4.614
283.15 K, x2 = 0.9009 | 848.23 | 5.687
293.15 K, x2 = 0.1009 | 950 | 1.448
293.15 K, x2 = 0.2017 | 936.43 | 1.527
293.15 K, x2 = 0.3022 | 920.62 | 1.667
293.15 K, x2 = 0.4025 | 909.23 | 1.837
293.15 K, x2 = 0.5026 | 896.74 | 2.086
293.15 K, x2 = 0.6025 | 882.6 | 2.359
293.15 K, x2 = 0.7022 | 868.6 | 2.821
293.15 K, x2 = 0.8016 | 852.26 | 3.401
293.15 K, x2 = 0.9009 | 841.25 | 4.138
303.15 K, x2 = 0.1009 | 942.24 | 1.221
303.15 K, x2 = 0.2017 | 928.31 | 1.276
303.15 K, x2 = 0.3022 | 912.67 | 1.38
303.15 K, x2 = 0.4025 | 901.18 | 1.496
303.15 K, x2 = 0.5026 | 888.09 | 1.668
303.15 K, x2 = 0.6025 | 875.63 | 1.891
303.15 K, x2 = 0.7022 | 860.74 | 2.16
303.15 K, x2 = 0.8016 | 846.02 | 2.585
303.15 K, x2 = 0.9009 | 832.65 | 3.101
313.15 K, x2 = 0.1009 | 933.77 | 1.051
313.15 K, x2 = 0.2017 | 920.41 | 1.086
313.15 K, x2 = 0.3022 | 904.59 | 1.16
313.15 K, x2 = 0.4025 | 892.85 | 1.246
313.15 K, x2 = 0.5026 | 879.8 | 1.369
313.15 K, x2 = 0.6025 | 867.83 | 1.524
313.15 K, x2 = 0.7022 | 852.77 | 1.732
313.15 K, x2 = 0.8016 | 839.15 | 2.023
313.15 K, x2 = 0.9009 | 824.98 | 2.37
323.15 K, x2 = 0.1009 | 925.31 | 0.917
323.15 K, x2 = 0.2017 | 912.27 | 0.939
323.15 K, x2 = 0.3022 | 896.34 | 0.992
323.15 K, x2 = 0.4025 | 885.58 | 1.056
323.15 K, x2 = 0.5026 | 872.2 | 1.138
323.15 K, x2 = 0.6025 | 859.03 | 1.269
323.15 K, x2 = 0.7022 | 843.94 | 1.404
323.15 K, x2 = 0.8016 | 831.15 | 1.61
323.15 K, x2 = 0.9009 | 818.33 | 1.869
333.15 K, x2 = 0.1009 | 916.93 | 0.812
333.15 K, x2 = 0.2017 | 905.29 | 0.826
333.15 K, x2 = 0.3022 | 887.96 | 0.861
333.15 K, x2 = 0.4025 | 876.93 | 0.908
333.15 K, x2 = 0.5026 | 864.04 | 0.971
333.15 K, x2 = 0.6025 | 849.87 | 1.044
333.15 K, x2 = 0.7022 | 837.74 | 1.157
333.15 K, x2 = 0.8016 | 823.68 | 1.31
333.15 K, x2 = 0.9009 | 810.66 | 1.423
343.15 K, x2 = 0.1009 | 909.05 | 0.774
343.15 K, x2 = 0.2017 | 895.76 | 0.731
343.15 K, x2 = 0.3022 | 880 | 0.737
343.15 K, x2 = 0.4025 | 867.83 | 0.79
343.15 K, x2 = 0.5026 | 854.24 | 0.83
343.15 K, x2 = 0.6025 | 842.51 | 0.902
343.15 K, x2 = 0.7022 | 829.06 | 0.973
343.15 K, x2 = 0.8016 | 813.99 | 1.08
343.15 K, x2 = 0.9009 | 803.44 | 1.218
